Reference: PMC8482771 (ACS Omega, 2021)
Read-outs that look alike come from different tables or passages of the source.

Legend:
Format in all cases: cell-based
h-P2X7R [1] = target: T1, h-P2X7R (Homo sapiens, UniProt Q99572)
T1 sequence (Q99572 1-595): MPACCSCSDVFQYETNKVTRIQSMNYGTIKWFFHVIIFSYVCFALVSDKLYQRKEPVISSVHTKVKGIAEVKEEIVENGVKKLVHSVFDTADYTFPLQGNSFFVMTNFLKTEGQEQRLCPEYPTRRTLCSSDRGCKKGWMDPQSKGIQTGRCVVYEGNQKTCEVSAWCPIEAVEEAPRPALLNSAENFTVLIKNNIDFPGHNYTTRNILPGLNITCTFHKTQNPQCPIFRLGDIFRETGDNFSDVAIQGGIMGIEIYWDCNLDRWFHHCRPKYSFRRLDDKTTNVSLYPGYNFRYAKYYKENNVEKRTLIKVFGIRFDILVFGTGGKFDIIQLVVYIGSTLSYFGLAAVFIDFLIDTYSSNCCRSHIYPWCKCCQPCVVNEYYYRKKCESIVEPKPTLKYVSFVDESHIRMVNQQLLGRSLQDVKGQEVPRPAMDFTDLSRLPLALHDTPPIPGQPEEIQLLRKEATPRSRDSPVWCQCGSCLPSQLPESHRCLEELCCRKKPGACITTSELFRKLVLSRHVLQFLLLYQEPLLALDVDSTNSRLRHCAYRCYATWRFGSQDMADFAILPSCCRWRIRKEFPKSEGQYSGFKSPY

h-P2X4R [2] = target: T2, h-P2X4R (Homo sapiens, UniProt Q99571); test: Ca2+ influx assay; details: for inhibition at 50 µM: 1321-N1, read-out: h-P2X4 % inhibition
T2 sequence (Q99571 1-388): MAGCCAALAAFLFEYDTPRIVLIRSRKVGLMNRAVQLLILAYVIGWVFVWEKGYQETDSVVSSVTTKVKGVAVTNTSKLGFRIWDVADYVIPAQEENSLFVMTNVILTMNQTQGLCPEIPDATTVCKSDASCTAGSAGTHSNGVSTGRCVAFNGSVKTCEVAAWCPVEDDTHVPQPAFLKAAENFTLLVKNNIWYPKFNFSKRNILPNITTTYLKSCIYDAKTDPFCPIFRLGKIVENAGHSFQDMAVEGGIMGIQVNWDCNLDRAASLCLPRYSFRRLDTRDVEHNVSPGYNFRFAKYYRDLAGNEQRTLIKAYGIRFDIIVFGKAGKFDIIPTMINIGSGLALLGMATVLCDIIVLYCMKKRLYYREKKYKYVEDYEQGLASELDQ

h-P2X7R [3] = target: T1, h-P2X7R; test: Ca2+ influx assay; details: for inhibition at 50 µM: 1321-N1, read-out: h-P2X7 % inhibition
Cytotoxicity assay = details: human, nontransfected 1321N1 astrocytoma cells
h-P2X5 receptor = h-P2X5 receptor (Homo sapiens, UniProt Q93086); test: Ca2+ influx assay; details: for inhibition at 50 µM: 1321-N1, read-out: h-P2X5 % inhibition
Sequence of h-P2X5 receptor (Q93086 whole entry): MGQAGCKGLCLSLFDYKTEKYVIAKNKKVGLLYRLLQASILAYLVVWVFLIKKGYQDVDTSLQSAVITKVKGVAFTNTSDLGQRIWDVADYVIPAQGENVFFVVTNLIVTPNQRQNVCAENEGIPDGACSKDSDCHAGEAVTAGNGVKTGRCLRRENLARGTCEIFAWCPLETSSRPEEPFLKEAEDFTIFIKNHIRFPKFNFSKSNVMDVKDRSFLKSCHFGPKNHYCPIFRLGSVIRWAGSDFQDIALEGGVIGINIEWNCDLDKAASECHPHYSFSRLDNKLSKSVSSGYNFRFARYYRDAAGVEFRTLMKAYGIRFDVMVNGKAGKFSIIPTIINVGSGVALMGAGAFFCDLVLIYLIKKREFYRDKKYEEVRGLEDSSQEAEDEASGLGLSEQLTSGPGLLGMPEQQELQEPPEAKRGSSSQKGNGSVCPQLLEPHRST

h-P2X2R [4] = target: T3, h-P2X2R (Homo sapiens, UniProt Q9UBL9); test: Ca2+ influx assay; details: for inhibition at 50 µM: 1321-N1, read-out: h-P2X2 % inhibition; for activity against h-P2X2 receptor (in words): SAR statement
T3 sequence (Q9UBL9 1-471): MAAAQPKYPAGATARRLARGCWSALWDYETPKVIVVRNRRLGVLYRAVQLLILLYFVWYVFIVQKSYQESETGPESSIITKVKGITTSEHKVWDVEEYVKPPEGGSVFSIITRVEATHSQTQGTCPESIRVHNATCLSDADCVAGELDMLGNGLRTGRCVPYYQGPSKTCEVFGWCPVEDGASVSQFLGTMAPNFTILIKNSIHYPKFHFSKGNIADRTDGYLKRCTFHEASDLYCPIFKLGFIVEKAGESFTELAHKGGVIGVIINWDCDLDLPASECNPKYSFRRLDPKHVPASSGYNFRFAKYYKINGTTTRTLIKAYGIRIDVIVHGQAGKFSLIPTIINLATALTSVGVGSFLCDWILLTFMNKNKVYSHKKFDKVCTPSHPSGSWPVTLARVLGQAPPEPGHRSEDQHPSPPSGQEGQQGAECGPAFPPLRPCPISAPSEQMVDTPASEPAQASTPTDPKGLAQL

h-P2X2R [5] = target: T3, h-P2X2R; test: Mode of inhibition: ATP dose-response curve without and with inhibitor, h-P2X2R; details: h-P2X2
h-P2X4R [6] = target: T2, h-P2X4R; test: Mode of inhibition: ATP dose-response curve without and with inhibitor, h-P2X4R; details: h-P2X4R

| EC50 (h-P2X7R [1]; read-out: EC50 of BzATP-induced response, BzATP without inhibitor) | IC50 (h-P2X4R [2]) | inhibition at 50 µM (h-P2X4R [2]) | IC50 (h-P2X7R [3]) | IC50 (h-P2X5 receptor) | inhibition at 50 µM (h-P2X5 receptor) | IC50 (h-P2X2R [4]) | inhibition at 50 µM (h-P2X2R [4]) | activity against h-P2X2 receptor (in words) (h-P2X2R [4]) | inhibition at 50 µM (h-P2X7R [3]) | mechanism of receptor inhibition (h-P2X2R [5]) | mechanism of receptor inhibition (h-P2X7R [1]) | activity against h-P2X4 receptor (in words) (h-P2X4R [2]; SAR statement) | mechanism of receptor inhibition (h-P2X4R [6]) | IC50 (h-P2X5 receptor; read-out: h-P2X5 IC50 ± SEM, Ca2+ influx, ATP at EC80, n = 3) | Compound | cytotoxicity at 24 h, 50 µM (Cytotoxicity assay) |
| --- | --- | --- | --- | --- | --- | --- | --- | --- | --- | --- | --- | --- | --- | --- | --- | --- |
|  | > 50 µM | 24% | > 50 µM | > 50 µM | 29% | 1.57 ± 0.01 µM |  |  | 45% |  |  | inactive |  |  | CC(=NNC(=O)c1ccccc1NS(C)(=O)=O)c1cccs1 [7a, N-(2-(2-(1-(Thiophen-2-yl)ethylidene)hydrazinecarbonyl)phenyl)methanesulfonamide] | 11.6 ± 0.89% |
|  | > 50 µM | 8% | > 50 µM | > 50 µM | 12% | 1.8 ± 0.02 µM |  |  | 47% |  |  |  |  |  | CC(=NNC(=O)c1ccccc1NS(C)(=O)=O)c1sccc1C [7b, N-(2-(2-(1-(3-Methylthiophen-2-yl)ethylidene)hydrazinecarbonyl)phenyl)methanesulfonamide] | 10.7 ± 0.54% |
|  | 3.89 ± 0.05 µM |  | 8.94 ± 0.01 µM | > 50 µM | 31% | 1.59 ± 0.01 µM |  |  |  |  |  |  |  |  | CC(=NNC(=O)c1ccccc1NS(C)(=O)=O)c1cc(C)cs1 [7c, N-(2-(2-(1-(4-Methylthiophen-2-yl)ethylidene)hydrazinecarbonyl)phenyl)methanesulfonamide] | 5.98 ± 0.09% |
|  | 3.21 ± 0.01 µM |  | 4.53 ± 0.11 µM | > 50 µM | 46% | 2.03 ± 0.04 µM |  |  |  |  |  |  |  |  | CC(=NNC(=O)c1ccccc1NS(C)(=O)=O)c1ccc(C)s1 [7d, N-(2-(2-(1-(5-Methylthiophen-2-yl)ethylidene)hydrazinecarbonyl)phenyl)methanesulfonamide] | 1.57 ± 0.11% |
|  | 1.61 ± 0.04 µM |  | 1.7 ± 0.09 µM | > 50 µM | 27% | 2.17 ± 0.02 µM |  |  |  |  |  |  | negative allosteric modulator |  | CC(=NNC(=O)c1ccccc1NS(C)(=O)=O)c1sccc1Cl [7e, N-(2-(2-(1-(3-Chlorothiophen-2-yl)ethylidene)hydrazinecarbonyl)phenyl)methanesulfonamide] | 8.33 ± 0.8% |
|  | 4.03 ± 0.07 µM |  | 1.16 ± 0.03 µM | > 50 µM | 0% | > 50 µM | 37% |  |  |  |  |  |  |  | CC(=NNC(=O)c1ccccc1NS(C)(=O)=O)c1ccc(Cl)s1 [7f, N-(2-(2-(1-(5-Chlorothiophen-2-yl)ethylidene)hydrazinecarbonyl)phenyl)methanesulfonamide] | 11.6 ± 0.26% |
|  | 2.44 ± 0.1 µM |  | 6.8 ± 0.21 µM | > 50 µM | 19% | > 50 µM | 26% |  |  |  |  |  |  |  | CC(=NNC(=O)c1ccccc1NS(C)(=O)=O)c1ccc([N+](=O)[O-])s1 [7g, N-(2-(2-(1-(5-Nitrothiophen-2-yl)ethylidene)hydrazinecarbonyl)phenyl)methanesulfonamide] | 23.8 ± 2.15% |
|  |  |  | 2.79 ± 0.22 µM |  |  | 0.89 ± 0.41 µM |  |  |  |  |  |  |  |  | Nc1c(S(=O)(=O)O)cc(Nc2ccc(Nc3nc(Cl)nc(Nc4cccc(S(=O)(=O)O)c4)n3)c(S(=O)(=O)O)c2)c2c1C(=O)c1ccccc1C2=O [RB-2, Reactive Blue 2, reference compound] |  |

More lines, now with the values behind:

| Compound | EC50 (h-P2X7R [1]; read-out: EC50 of BzATP-induced response, BzATP without inhibitor) | IC50 (h-P2X4R [2]) | inhibition at 50 µM (h-P2X4R [2]) | IC50 (h-P2X7R [3]) | IC50 (h-P2X5 receptor) | inhibition at 50 µM (h-P2X5 receptor) | IC50 (h-P2X2R [4]) | inhibition at 50 µM (h-P2X2R [4]) | activity against h-P2X2 receptor (in words) (h-P2X2R [4]) | inhibition at 50 µM (h-P2X7R [3]) | mechanism of receptor inhibition (h-P2X2R [5]) | mechanism of receptor inhibition (h-P2X7R [1]) | activity against h-P2X4 receptor (in words) (h-P2X4R [2]; SAR statement) | mechanism of receptor inhibition (h-P2X4R [6]) | IC50 (h-P2X5 receptor; read-out: h-P2X5 IC50 ± SEM, Ca2+ influx, ATP at EC80, n = 3) | cytotoxicity at 24 h, 50 µM (Cytotoxicity assay) |
| --- | --- | --- | --- | --- | --- | --- | --- | --- | --- | --- | --- | --- | --- | --- | --- | --- |
| 2′/3′-O-(4-benzoylbenzoyl)adenosine-5′-triphosphate [BzATP, reference compound] | 5.5 µM |  |  |  |  |  |  |  |  |  |  |  |  |  |  |  |
| CC(=NNC(=O)c1ccccc1NS(C)(=O)=O)c1ccccc1 [6a, N-(2-(2-(1-Phenylethylidene)hydrazinecarbonyl)phenyl)methanesulfonamide] |  | > 50 µM | 46% | 4.21 ± 0.01 µM | > 50 µM | 20% | > 50 µM | 20% |  |  |  |  |  |  |  | 14 ± 0.21% |
| CC(=NNC(=O)c1ccccc1NS(C)(=O)=O)c1ccccc1F [6b, N-(2-(2-(1-(2-Fluorophenyl)ethylidene)hydrazinecarbonyl)phenyl)methanesulfonamide] |  | > 50 µM | 40% |  | > 50 µM | 16% | 1.91 ± 0.03 µM |  |  |  |  |  |  |  |  | 11.4 ± 0.57% |
| CC(=NNC(=O)c1ccccc1NS(C)(=O)=O)c1cccc(Br)c1 [6c, N-(2-(2-(1-(3-Bromophenyl)ethylidene)hydrazinecarbonyl)phenyl)methanesulfonamide] |  | > 50 µM | 24% | 5.54 ± 0.05 µM | > 50 µM | 0% | > 50 µM | 0% | loss of activity |  |  |  |  |  |  | 15.1 ± 0.44% |
| CC(=NNC(=O)c1ccccc1NS(C)(=O)=O)c1ccc(Cl)cc1 [6d, N-(2-(2-(1-(4-Chlorophenyl)ethylidene)hydrazinecarbonyl)phenyl)methanesulfonamide] |  | > 50 µM | 18% | > 50 µM | > 50 µM | 42% | > 50 µM | 15% | loss of activity | 48% |  |  |  |  |  | 6.96 ± 0.8% |
| CC(=NNC(=O)c1ccccc1NS(C)(=O)=O)c1ccc(Br)cc1 [6e, N-(2-(2-(1-(4-Bromophenyl)ethylidene)hydrazinecarbonyl)phenyl)methanesulfonamide] |  | > 50 µM | 0% | > 50 µM | > 50 µM | 10% | 3.22 ± 0.05 µM |  |  | 34% |  |  |  |  |  | 16.8 ± 1.1% |
| CC(=NNC(=O)c1ccccc1NS(C)(=O)=O)c1ccc(I)cc1 [6f, N-(2-(2-(1-(4-Iodophenyl)ethylidene)hydrazinecarbonyl)phenyl)methanesulfonamide] |  | > 50 µM | 32% | 10.01 ± 0.07 µM | > 50 µM | 21% | 3.52 ± 0.07 µM |  |  |  |  |  |  |  |  | 8.31 ± 0.33% |
| COc1ccc(C(C)=NNC(=O)c2ccccc2NS(C)(=O)=O)cc1 [6g, N-(2-(2-(1-(4-Methoxyphenyl)ethylidene)hydrazinecarbonyl)phenyl)methanesulfonamide] |  | > 50 µM | 45% | 2.09 ± 0.13 µM | > 50 µM | 26% | 3.48 ± 0.04 µM |  |  |  |  |  |  |  |  | 5.29 ± 0.72% |
| CC(=NNC(=O)c1ccccc1NS(C)(=O)=O)c1ccc(N)cc1 [6h, N-(2-(2-(1-(4-Aminophenyl)ethylidene)hydrazinecarbonyl)phenyl)methanesulfonamide] |  | > 50 µM | 34% | 1.1 ± 0.21 µM | > 50 µM | 10% | 0.32 ± 0.01 µM |  |  |  | negative allosteric modulator | negative allosteric modulator |  |  |  | 18.5 ± 1.22% |
| Cc1ccc(C(=O)Nc2ccc(S(=O)(=O)O)c3cc(S(=O)(=O)O)cc(S(=O)(=O)O)c23)cc1NC(=O)c1cccc(NC(=O)Nc2cccc(C(=O)Nc3cc(C(=O)Nc4ccc(S(=O)(=O)O)c5cc(S(=O)(=O)O)cc(S(=O)(=O)O)c45)ccc3C)c2)c1 [Suramin, reference compound] |  |  |  |  |  |  |  |  |  |  |  |  |  |  | 16.1 ± 0.5 µM |  |
